Biological target: T1, MurC (Acinetobacter baumannii, UniProt A3M9Y0)
T1 construct: full length, N-terminal 6xHis tag removed by TEV protease, E. coli BL21(DE3)
Assay: HPLC of UMA formation
Format: biochemical
Conditions: 200 µM UDP-MurNAc, 1 mM L-alanine, 1 mM ATP, 2 mM MgCl2, pH 7.4, 37 °C

T1 sequence (A3M9Y0 whole entry): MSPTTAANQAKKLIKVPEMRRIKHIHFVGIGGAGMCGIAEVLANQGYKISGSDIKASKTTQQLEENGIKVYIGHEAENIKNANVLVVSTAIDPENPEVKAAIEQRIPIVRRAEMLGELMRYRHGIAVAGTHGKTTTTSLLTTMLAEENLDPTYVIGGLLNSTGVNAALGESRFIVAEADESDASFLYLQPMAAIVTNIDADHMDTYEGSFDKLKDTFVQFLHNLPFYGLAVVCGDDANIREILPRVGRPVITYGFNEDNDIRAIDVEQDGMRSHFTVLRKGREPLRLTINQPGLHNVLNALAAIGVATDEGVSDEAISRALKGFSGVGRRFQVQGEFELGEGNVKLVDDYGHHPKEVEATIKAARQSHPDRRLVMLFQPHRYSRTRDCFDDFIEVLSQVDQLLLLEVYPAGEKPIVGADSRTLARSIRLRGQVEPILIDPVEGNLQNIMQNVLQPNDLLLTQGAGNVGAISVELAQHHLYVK

CC(=O)N[C@H]1[C@@H](OP(=O)(O)OP(=O)(O)OC[C@H]2O[C@@H](n3ccc(=O)[nH]c3=O)[C@H](O)[C@@H]2O)O[C@H](CO)[C@@H](O)[C@@H]1O[C@H](C)C(=O)O [UDP-MurNAc]
HPLC of UMA formation: MurC and MurD activity were quantified by measuring MurC product, UMA
